# Tested on: acetylcholine receptors in the NMJ
# Type: cell-based, human
substance,measurement,value
α-bungarotoxin [BTX],average number of spontaneous contractions after treatment,0.17±0.17
same,"average score (corrected fraction of effective light pulses), after treatment",0.01±0.01
same,light-triggered and spontaneous contractions,completely stopped

# From patent US20210179989A1, “SYSTEM AND METHODS FOR OPTOGENETIC EVALUATION OF HUMAN NEUROMUSCULAR FUNCTION” (priority 2018, published 2021)
